Measured values as given in ChEMBL document CHEMBL5523727, “Discovery of KT-413, a Targeted Protein Degrader of IRAK4 and IMiD Substrates Targeting MYD88 Mutant Diffuse Large B-Cell Lymphoma” (J Med Chem, 2024).

Experiments:
[1] = biological target: T1, Protein cereblon/Interleukin-1 receptor-associated kinase 4 (Homo sapiens, UniProt Q9NWZ3+Q96SW2); test: PROTAC activity at CRBN/IRAK4 in human OCI-Ly10 cells assessed as induction of IRAK4 degradation measured after 24 hrs by MSD assay relative to control; assay type: cell-based
Target sequence in this assay (Q96SW2 whole entry, looked up): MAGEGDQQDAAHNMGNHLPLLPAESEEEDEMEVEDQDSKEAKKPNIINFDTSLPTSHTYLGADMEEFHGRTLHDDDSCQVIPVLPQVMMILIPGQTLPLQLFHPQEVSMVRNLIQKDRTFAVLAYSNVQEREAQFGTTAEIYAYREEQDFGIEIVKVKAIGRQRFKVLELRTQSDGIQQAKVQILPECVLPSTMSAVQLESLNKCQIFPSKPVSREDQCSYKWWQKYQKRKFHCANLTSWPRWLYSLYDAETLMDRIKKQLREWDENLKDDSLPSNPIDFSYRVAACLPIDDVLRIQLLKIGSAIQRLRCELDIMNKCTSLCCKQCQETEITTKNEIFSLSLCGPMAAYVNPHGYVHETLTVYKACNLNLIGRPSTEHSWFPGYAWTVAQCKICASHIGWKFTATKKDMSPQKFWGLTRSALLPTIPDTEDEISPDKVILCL
Target sequence in this assay (Q9NWZ3 whole entry, looked up): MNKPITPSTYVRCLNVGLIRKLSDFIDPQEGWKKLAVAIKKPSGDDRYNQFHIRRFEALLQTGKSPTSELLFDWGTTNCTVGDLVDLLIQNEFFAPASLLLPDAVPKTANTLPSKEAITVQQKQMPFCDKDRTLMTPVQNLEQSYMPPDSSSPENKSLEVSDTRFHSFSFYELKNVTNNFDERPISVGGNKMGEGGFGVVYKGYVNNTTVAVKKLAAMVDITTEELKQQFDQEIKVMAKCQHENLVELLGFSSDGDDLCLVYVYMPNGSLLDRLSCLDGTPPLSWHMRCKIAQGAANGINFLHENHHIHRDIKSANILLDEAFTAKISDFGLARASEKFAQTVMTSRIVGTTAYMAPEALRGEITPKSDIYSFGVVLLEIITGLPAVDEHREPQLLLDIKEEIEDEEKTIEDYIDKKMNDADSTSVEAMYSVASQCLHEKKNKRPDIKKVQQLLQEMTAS

[2] = biological target: T2, Cereblon/Ikaros (Homo sapiens, UniProt Q96SW2+Q13422); test: PROTAC activity at CRBN/Ikaros in human OCI-Ly10 cells assessed as induction of Ikaros degradation measured after 24 hrs by MSD assay; assay type: cell-based
[3] = test system: OCI-Ly10; test: Antiproliferative activity against human OCI-Ly10 cells measured after 4 days by CellTiter-Glo Luminescent Cell Viability Assay; assay type: functional, cell-based; conditions: Homo sapiens, OCI-Ly10, 96 h
[4] = biological target: T1, Protein cereblon/Interleukin-1 receptor-associated kinase 4; test: PROTAC activity at CRBN/IRAK4 in human OCI-Ly10 cells assessed as induction of IRAK4 degradation measured after 24 hrs by MSD assay; assay type: cell-based
Target sequence in this assay (Q9NWZ3 whole entry): as the sequence (Q9NWZ3 whole entry, looked up) above
Target sequence in this assay (Q96SW2 whole entry): as the sequence (Q96SW2 whole entry, looked up) above

[5] = Metabolic stability in rat liver microsomes assessed as intrinsic clearance at 1 uM measured upto 60 mins in presence of NADPH by UPLC/MS-MS analysis; assay type: ADME, Microsome; conditions: read-out: CLH
[6] = Passive permeability of the compound in wild type MDCK cells across apical to basolateral side at 1 uM measured for 120 mins by LC-MS/MS analysis; assay type: ADME, cell-based, Canis lupus familiaris; conditions: dog, read-out: permeability
[7] = biological target: Protein cereblon/Interleukin-1 receptor-associated kinase 4 (Homo sapiens, UniProt Q96SW2+Q9NWZ3); test: Binding affinity to CRBN/IRAK4 […] assessed as dissociation constant by DiscoverX Kd Elect assay
[8] = Metabolic stability in human liver microsomes assessed as intrinsic clearance at 1 uM measured upto 60 mins in presence of NADPH by UPLC/MS-MS analysis; assay type: ADME, Microsome; conditions: read-out: CLH
[9] = biological target: Protein cereblon (Homo sapiens, UniProt Q96SW2); test: Binding affinity to CRBN (unknown origin) by HTRF assay
[10] = Clearance in rat at 2 mg/kg, iv by LC-MS/MS analysis; assay type: ADME, organism-based; conditions: in vivo
[11] = AUC in rat at 10 mg/kg, po by LC-MS/MS analysis; assay type: ADME, organism-based; conditions: in vivo, read-out: AUC
[12] = Volume of distribution at steady state in rat at 2 mg/kg, iv by LC-MS/MS analysis; assay type: ADME, organism-based; conditions: in vivo, read-out: Vdss
[13] = Oral bioavailability in rat at 10 mg/kg by LC-MS/MS analysis; assay type: ADME, organism-based; conditions: in vivo
[14] = Half life in rat at 2 mg/kg, iv by LC-MS/MS analysis; assay type: ADME, organism-based; conditions: in vivo
[15] = Oral bioavailability in rat at 5 mg/kg by LC-MS/MS analysis; assay type: ADME, organism-based; conditions: in vivo
[16] = AUC in rat at 5 mg/kg, po by LC-MS/MS analysis; assay type: ADME, organism-based; conditions: in vivo
[17] = Half life in Non human primate plasma; assay type: ADME, cell-free; conditions: primates
[18] = Half life in human plasma; assay type: ADME, cell-free
[19] = Half life in dog plasma; assay type: ADME, cell-free, Canis lupus familiaris
[20] = Half life in rat plasma; assay type: ADME, cell-free
[21] = Drug exposure in Non human primate administered as iv dose; assay type: ADME, organism-based; conditions: primates, in vivo
[22] = Drug exposure in rat administered as iv bolus dose; assay type: ADME, organism-based; conditions: in vivo
[23] = Oral bioavailability in rat at 3 mg/kg by LC-MS/MS analysis; assay type: ADME, organism-based; conditions: in vivo
[24] = AUC in rat at 3 mg/kg, po by LC-MS/MS analysis; assay type: ADME, organism-based; conditions: in vivo
[25] = biological target: T2, Cereblon/Ikaros; test: PROTAC activity at CRBN/Ikaros in human OCI-Ly10 cells assessed as induction of Ikaros degradation measured after 6 hrs by MSD assay relative to control; assay type: cell-based

T2 sequence (Q96SW2 whole entry): as the sequence (Q96SW2 whole entry, looked up) above
T2 sequence (Q13422 whole entry): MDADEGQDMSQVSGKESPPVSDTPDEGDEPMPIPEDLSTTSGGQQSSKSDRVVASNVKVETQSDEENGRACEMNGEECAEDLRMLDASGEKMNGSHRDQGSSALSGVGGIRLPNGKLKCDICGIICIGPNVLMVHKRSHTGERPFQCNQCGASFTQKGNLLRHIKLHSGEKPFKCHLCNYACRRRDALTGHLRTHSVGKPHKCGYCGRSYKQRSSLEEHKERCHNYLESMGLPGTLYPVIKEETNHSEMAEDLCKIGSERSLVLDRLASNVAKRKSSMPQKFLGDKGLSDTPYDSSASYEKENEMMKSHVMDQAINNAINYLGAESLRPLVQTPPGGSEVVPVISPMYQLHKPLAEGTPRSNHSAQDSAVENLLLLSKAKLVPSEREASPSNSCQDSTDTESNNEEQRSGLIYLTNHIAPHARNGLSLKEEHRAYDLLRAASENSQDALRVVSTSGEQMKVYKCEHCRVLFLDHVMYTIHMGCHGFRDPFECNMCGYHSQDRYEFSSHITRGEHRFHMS
Chain of Protein cereblon (Q96SW2 whole entry): as the sequence (Q96SW2 whole entry, looked up) above
Chain of Protein cereblon/Interleukin-1 receptor-associated kinase 4 (Homo sapiens, UniProt Q96SW2+Q9NWZ3) (Q9NWZ3 whole entry): as the sequence (Q9NWZ3 whole entry, looked up) above
Chain of Protein cereblon/Interleukin-1 receptor-associated kinase 4 (Homo sapiens, UniProt Q96SW2+Q9NWZ3) (Q96SW2 whole entry): as the sequence (Q96SW2 whole entry, looked up) above

Row | SMILES | Emax [1] [%] | DC50 [2] [nM] | IC50 [3] [nM] | DC50 [4] [nM] | microsomal CLint at 1 µM [5] [µL/min/mg] | Papp A→B at 2 h, 1 µM [6] [×10⁻⁶ cm/s] | Kd [7] [nM] | microsomal CLint at 1 µM [8] [µL/min/mg] | IC50 [9] [nM] | clearance [10] [mL/min/kg] | Vd [12] [L/kg] | half-life [14] [h] | also measured
1 | CN(CCCOc1cccc2c1CN(C1CCC(=O)NC1=O)C2=O)C[C@H]1CC[C@H](n2cc3cc(NC(=O)c4cccc(C(F)(F)F)n4)c(C(C)(C)O)cc3n2)CC1 (some centres not stated) | 80 | > 500 | 235 | 5 | 44 | 4.8 | 0.22 | 19 | – | – | – | – | –
2 | CN(C[C@H]1CC[C@H](n2cc3cc(NC(=O)c4cccc(C(F)(F)F)n4)c(C(C)(C)O)cc3n2)CC1)[C@H]1CCC2(CC1)C[C@H](Nc1cccc3c1C(=O)N(C1CCC(=O)NC1=O)C3=O)C2 (some centres not stated) | 86 | – | – | – | – | – | – | – | – | – | – | – | –
3 | CC(C)(O)c1cc2nn([C@H]3CC[C@H](CN4CCC5(CC4)CC(Nc4cccc6c4C(=O)N(C4CCC(=O)NC4=O)C6=O)C5)CC3)cc2cc1NC(=O)c1cccc(C(F)(F)F)n1 (some centres not stated) | – | 27 | 25 | 3 | 2.7 | 2.8 | – | 1.2 | 10 | 13 | 13 | 12 | AUC [11]: 1.4 µM·h; bioavailability [13]: 17%
4 | COc1cc2nc([C@H]3CC[C@H](CN4CC5(CC(CCNc6cccc7c6C(=O)N(C6CCC(=O)NC6=O)C7=O)C5)C4)CC3)sc2cc1NC(=O)c1cccc(C(F)(F)F)n1 (some centres not stated) | – | 14 | 72 | 35 | 1 | 0.18 | – | 1.5 | – | 4.8 | 9.7 | 24 | bioavailability [15]: 23%; AUC [16]: 2.5 µM·h
5 | CC(C)(O)c1cc2nc([C@H]3CC[C@H](CN4CC5(CC(CCNc6cccc7c6C(=O)N([C@@H]6CCC(=O)NC6=O)C7=O)C5)C4)CC3)sc2cc1NC(=O)c1cccc(C(F)(F)F)n1 | – | 9 | – | 19 | – | – | – | – | 110 | – | – | – | half-life [17]: 3.03 h; half-life [18]: 2.92 h; half-life [19]: 3.07 h; half-life [20]: 2.38 h; Drug uptake [21]: 30%; Drug uptake [22]: 48%
6 | CC(C)(O)c1cc2nn([C@H]3CC[C@H](CN4CCC(O[C@H]5C[C@H](Nc6cccc7c6C(=O)N(C6CCC(=O)NC6=O)C7=O)C5)CC4)CC3)cc2cc1NC(=O)c1cccc(C(F)(F)F)n1 (some centres not stated) | – | 470 | 2300 | 5 | 3.8 | 26 | – | 4.1 | 26 | 7 | 8.9 | 16 | AUC [11]: 5.3 µM·h; bioavailability [13]: 29%
7 | CC(C)(O)c1cc2c(cnn2CCCCCCCCCNc2cccc3c2C(=O)N(C2CCC(=O)NC2=O)C3=O)cc1NC(=O)c1cccc(C(F)(F)F)n1 (configuration not stated) | 30 | 56 | 660 | > 10000 | – | – | > 3000 | – | 880 | – | – | – | –
8 | COc1cc2nc([C@H]3CC[C@H](CN4CC5(CC(CCNc6cccc7c6C(=O)N(C6CCC(=O)NC6=O)C7=O)C5)C4)CC3)oc2cc1NC(=O)c1cccc(C(F)(F)F)n1 (some centres not stated) | 68 | 6 | 53 | 190 | 2.9 | 0.34 | – | 3.9 | – | 9.4 | 9.6 | 12 | bioavailability [23]: 10%; AUC [24]: 0.5 µM·h
9 | CC(C)(O)c1cc2nn([C@H]3CC[C@H](CN4CCC5(CC4)CC(CNc4cccc6c4C(=O)N(C4CCC(=O)NC4=O)C6=O)C5)CC3)cc2cc1NC(=O)c1cccc(C(F)(F)F)n1 (some centres not stated) | – | 6 | 8 | 6 | 2.1 | 2.2 | – | 2.8 | 44 | 15 | 13 | 11 | bioavailability [15]: 1%; AUC [16]: 0.06 µM·h
10 | CN(CCCCc1cccc2c1C(=O)N(C1CCC(=O)NC1=O)C2=O)C[C@H]1CC[C@H](n2cc3cc(NC(=O)c4cccc(C(F)(F)F)n4)c(C(C)(C)O)cc3n2)CC1 (some centres not stated) | – | > 1000 | > 1000 | 20 | – | 1.3 | 0.14 | – | 91 | – | – | – | Emax [25]: 40%
11 | CN(CCCO[C@H]1C[C@H](Nc2cccc3c2C(=O)N(C2CCC(=O)NC2=O)C3=O)C1)C[C@H]1CC[C@H](n2cc3cc(NC(=O)c4cccc(C(F)(F)F)n4)c(C(C)(C)O)cc3n2)CC1 (some centres not stated) | – | 5 | 14 | 4 | 26 | 4.9 | 0.63 | 68 | 21 | 36 | 9.5 | 3.8 | AUC [11]: 0.76 µM·h; bioavailability [13]: 15%
12 | CC(C)(O)c1cc2nc([C@H]3CC[C@H](CN4CC5(CC(CCNc6cccc7c6C(=O)N([C@H]6CCC(=O)NC6=O)C7=O)C5)C4)CC3)sc2cc1NC(=O)c1cccc(C(F)(F)F)n1 | – | 2 | – | 6.3 | – | – | – | – | 3 | – | – | – | half-life [17]: 3.35 h; half-life [18]: 4.03 h; half-life [19]: 2.58 h; half-life [20]: 2.15 h; Drug uptake [21]: 52%; Drug uptake [22]: 57%
